Test results: US8586747B2, “3,3-dimethyl tetrahydroquinoline derivatives” (Hoffmann-La Roche Inc., priority 2010, dated 2013)

System: AMP-activated protein kinase (AMPK)
Experiment: ADP Quest assay for AMPK activators
Format: biochemical
Design: key: fold AMPK activation with vs without activator at 30 µM
Details: fold of AMPK activation to phosphorylate SAMS peptide without and with an activator at the concentration of 30 µM
Experimental: ADP Quest™ Assay for AMPK Activators
This method evaluates AMP-activated protein kinase (AMPK) activity through detecting the accumulation of ADP product using an ADP Quest kit and determining the E30 values of the small molecular AMPK activators. ADP Quest kit (DiscoveRx, Fremont, Calif.) is stored at −20° C. before use. Before an experiment, thaw the kit (include assay buffer, ADP standard solution, reagent A and reagent B) and equilibrate to room temperature. Dispense the ADP Quest reagents into single-use aliquots and store at −20° C. The compound concentrations typically range from 0 µM to 100 µM by 2-fold dilution. AMP concentrations range from […] to 1 mM as the reference control. In an assay, thaw and equilibrate the assay buffer, reagent A and reagent B to room temperature for 30 minutes prior to use. Mix ATP, SAMS peptide substrate and compound, and place them into the 384-well assay plate. Add reagent A and B based on the assay kit protocol. Incubate the assay plate at room temperature for 30 minutes after addition the mixture followed by the addition of AMPK protein (Invitrogen, CA) to initiate the AMPK phosphorylation reaction. At the same time, reactions with AMPK activator AMP in the absence of enzyme is included as blank control. The reaction fluorescence signal is monitored and recorded on Envision in kinetic mode with the excitation wavelength of 530 nm and emission wavelength of 590 nm. The E30 value, defined as the fold of AMPK activation to phosphorylate SAMS peptide without and with an activator at the concentration of 30 µM, is calculated and analyzed using Prism 5.0.

| E30 | Compound |
| --- | --- |
| 1.34 | CC(C)(CO)Nc1cccc(C2Nc3ccc(C(=O)O)cc3CC2(C)C)c1 (stereo not shown) [Example 29, 2-[3-(2-Hydroxy-1,1-dimethyl-ethylamino)-phenyl]-3,3-dimethyl-1,2,3,4-tetrahydro-quinoline-6-carboxylic acid] |
| 1.45 | CN(C)C(=O)N(C)c1cccc(C2Nc3ccc(C(=O)O)cc3CC2(C)C)c1 (stereo not shown) [Example 30, 3,3-Dimethyl-2-[3-(trimethyl-ureido)-phenyl]-1,2,3,4-tetrahydro-quinoline-6-carboxylic acid] |
| 1.33 | CN(C(N)=O)c1cccc(C2Nc3ccc(C(=O)O)cc3CC2(C)C)c1 (stereo not shown) [Example 31, 3,3-Dimethyl-2-[3-(1-methyl-ureido)-phenyl]-1,2,3,4-tetrahydro-quinoline-6-carboxylic acid] |
| 1.38 | CC(C)N(C(N)=O)c1cccc(C2Nc3ccc(C(=O)O)cc3CC2(C)C)c1 (stereo not shown) [Example 32, 2-[3-(1-Isopropyl-ureido)-phenyl]-3,3-dimethyl-1,2,3,4-tetrahydro-quinoline-6-carboxylic acid] |
| 1.15 | CC1(C)Cc2cc(C(=O)O)ccc2NC1c1cccc(N2C(=O)OCC2(C)C)c1 (stereo not shown) [Example 34, 2-[3-(4,4-Dimethyl-2-oxo-oxazolidine-3-yl)-phenyl]-3,3-dimethyl-1,2,3,4-tetrahydro-quinoline-6-carboxylic acid] |
| 1.41 | CC1(C)Cc2cc(C(=O)O)ccc2NC1c1cccc(NC(=O)N2CCCC2)c1 (stereo not shown) [Example 35, 3,3-Dimethyl-2-{3-[(pyrrolidine-1-carbonyl)-amino]-phenyl}-1,2,3,4-tetrahydro-quinoline-6-carboxylic acid] |
| 1.37 | CCN(CC)C(=O)Nc1cccc(C2Nc3ccc(C(=O)O)cc3CC2(C)C)c1 (stereo not shown) [Example 36, 2-[3-(3,3-Diethyl-ureido)-phenyl}-3,3-dimethyl-1,2,3,4-tetrahydro-quinoline-6-carboxylic acid] |
| 2.19 | CC(C)(Nc1cccc(C2Nc3ccc(Cl)cc3CC2(C)C)c1)C(=O)O (stereo not shown) [Example 37, 2-[3-(6-Chloro-3,3-dimethyl-1,2,3,4-tetrahydro-quinolin-2-yl)-phenylamino]-2-methyl-propionic acid] |
| 2.12 | CC(C)(Nc1cccc(C2Nc3ccc(C#N)cc3CC2(C)C)c1)C(=O)O (stereo not shown) [Example 38, 2-[3-(6-Cyano-3,3-dimethyl-1,2,3,4-tetrahydro-quinolin-2-yl)-phenylamino]-2-methyl-propionic acid] |
| 1.36 | CNC(=O)C(C)(C)Nc1cccc(C2Nc3ccc(C(=O)NS(C)(=O)=O)cc3CC2(C)C)c1 (stereo not shown) [Example 39, 2-[3-(6-Methanesulfonylaminocarbonyl-3,3-dimethyl-1,2,3,4-tetrahydro-quinolin-2-yl)-phenylamino]-2,N-dimethyl-propionamide] |
| 1.35 | CN(C)C(=O)C(C)(C)Nc1cccc(C2Nc3ccc(C(=O)O)cc3CC2(C)C)c1 (stereo not shown) [Example 40, 2-[3-(1-Dimethylcarbamoyl-1-methyl-ethylamino)-phenyl]-3,3-dimethyl-1,2,3,4-tetrahydro-quinoline-6-carboxylic acid] |
| 1.35 | CC(C)(Nc1cccc(C2Nc3ccc(C(=O)O)cc3CC2(C)C)c1)C(=O)N1CCOCC1 (stereo not shown) [Example 41, 2-[3-(1,1-Dimethyl-2-morpholin-4-yl-2-oxo-ethylamino)-phenyl]-3,3-dimethyl-1,2,3,4-tetrahydro-quinoline-6-carboxylic acid] |
| 1.31 | CN1CCN(C(=O)C(C)(C)Nc2cccc(C3Nc4ccc(C(=O)O)cc4CC3(C)C)c2)CC1 (stereo not shown) [Example 42, 2-{3-[1,1-Dimethyl-2-(4-methyl-piperazin-1-yl)-2-oxo-ethylamino]-phenyl}-3,3-dimethyl-1,2,3,4-tetrahydro-quinoline-6-carboxylic acid] |
| 1.29 | CC(C)NC(=O)C(C)(C)Nc1cccc(C2Nc3ccc(C(=O)NS(C)(=O)=O)cc3CC2(C)C)c1 (stereo not shown) [Example 43, N-isopropyl-2-[3-(6-methanesulfonylaminocarbonyl-3,3-dimethyl-1,2,3,4-tetrahydro-quinolin-2-yl)-phenylamino]-2-methyl-propionamide] |
| 2.67 | CC1(C)Cc2cc(C(=O)O)ccc2NC1c1cccc(NC2(C(=O)O)CC2)c1 (stereo not shown) [Example 44, 2-[3-(1-Carboxy-cyclopropylamino)-phenyl]-3,3-dimethyl-1,2,3,4-tetrahydro-quinoline-6-carboxylic acid] |
| 2.41 | CC(C)(Nc1cccc(C2Nc3ccc(C(F)(F)F)cc3CC2(C)C)c1)C(=O)O (stereo not shown) [Example 45, 2-[3-(3,3-Dimethyl-6-trifluoromethyl-1,2,3,4-tetrahydro-quinolin-2-yl)-phenylamino]-2-methyl-propionic acid] |
| 1.46 | CC(C)(C)c1ccc(-c2cncc(C3Nc4ccc(C(=O)O)cc4CC3(C)C)c2)cc1 (stereo not shown) [Example 46, 2-[5-(4-tert-Butyl-phenyl)-pyridin-3-yl]-3,3-dimethyl-1,2,3,4-tetrahydro-quinoline-6-carboxylic acid] |
| 1.23 | CNC(=O)C(C)(C)Nc1cccc(C2Nc3ccc(C(=O)NS(=O)(=O)C4CC4)cc3CC2(C)C)c1 (stereo not shown) [Example 47, 2-[3-(6-Cyclopropanesulfonylaminocarbonyl-3,3-dimethyl-1,2,3,4-tetrahydro-quinolin-2-yl)-phenylamino]-2,N-dimethyl-propionamide] |
| 2.62 | CC(C)(Nc1cccc(C2Nc3ccc(S(C)(=O)=O)cc3CC2(C)C)c1)C(=O)O (stereo not shown) [Example 48, 2-[3-(6-Methanesulfonyl-3,3-dimethyl-1,2,3,4-tetrahydro-quinolin-2-yl)-phenylamino]-2-methyl-propionic acid] |
| 2.25 | CC(C)(C)c1ccc(-c2cc(F)cc(C3Nc4ccc(C(=O)NS(C)(=O)=O)cc4CC3(C)C)c2)cc1 (stereo not shown) [Example 49, N-[2-(4′-tert-Butyl-5-fluoro-biphenyl-3-yl)-3,3-dimethyl-1,2,3,4-tetrahydro-quinoline-6-carbonyl]-methanesulfonamide] |
| 1.61 | CN(C)c1cc(F)cc(C2Nc3ccc(C(=O)NS(C)(=O)=O)cc3CC2(C)C)c1 (stereo not shown) [Example 50, N-[2-(3-Dimethylamino-5-fluoro-phenyl)-3,3-dimethyl-1,2,3,4-tetrahydro-quinoline-6-carbonyl]-methanesulfonamide] |
| 1.42 | CC1(C)Cc2cc(C(=O)O)ccc2NC1c1cc(F)cc(-c2ccc(C#N)cc2)c1 (stereo not shown) [Example 51, 2-(4′-Cyano-5-fluoro-biphenyl-3-yl)-3,3-dimethyl-1,2,3,4-tetrahydro-quinoline-6-carboxylic acid] |
| 1.35 | CC1(C)Cc2cc(C(=O)NS(=O)(=O)C3CC3)ccc2NC1c1cc(F)cc(F)c1 (stereo not shown) [Example 52, Cyclopropanesulfonic acid [2-(3,5-difluoro-phenyl)-3,3-dimethyl-1,2,3,4-tetrahydro-quinoline-6-carbonyl]-amide] |
| 1.33 | CC1(C)Cc2cc(C(=O)O)ccc2NC1c1cc(N2CCOCC2)ccc1F (stereo not shown) [Example 53, 2-(2-Fluoro-5-morpholin-4-yl-phenyl)-3,3-dimethyl-1,2,3,4-tetrahydro-quinoline-6-carboxylic acid] |
| 1.28 | CC1(C)Cc2cc(C(=O)NS(=O)(=O)C3CC3)ccc2NC1c1cc(N2CCOCC2)ccc1F (stereo not shown) [Example 54, Cyclopropanesulfonic acid [2-(2-fluoro-5-morpholin-4-yl-phenyl)-3,3-dimethyl-1,2,3,4-tetrahydro-quinoline-6-carbonyl]-amide] |
